The values below come from PubChem BioAssay AID588576 (Sanford-Burnham Center for Chemical Genomics, 2011).

By EC50 is commonly meant the concentration that produces a half-maximal response.

Molecules are shown by their SMILES. Calls of active or inactive are those of the source.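 The calls were made as follows: active = an EC50 below a set limit for the caspase 9 and 3 cleavage signal; inactive = the rest.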

The target in this assay is Caspase-3 (Homo sapiens) + Caspase-9 (Homo sapiens) (UniProt P42574+P55211). Kind of assay: caspase-9/caspase-3 cascade activators, SAR follow-up, selectivity assay for Apaf-1 activator project, biochemical, fluorescence, LZ-caspase-9 mutant (AID 588576). As to conditions: recombinant LZ-caspase-9/procaspase-3, DEVD-Rh110 fluorescence, 55 min.
Caspase-3 (Homo sapiens) + Caspase-9 (Homo sapiens), sequence (P42574 whole entry, looked up): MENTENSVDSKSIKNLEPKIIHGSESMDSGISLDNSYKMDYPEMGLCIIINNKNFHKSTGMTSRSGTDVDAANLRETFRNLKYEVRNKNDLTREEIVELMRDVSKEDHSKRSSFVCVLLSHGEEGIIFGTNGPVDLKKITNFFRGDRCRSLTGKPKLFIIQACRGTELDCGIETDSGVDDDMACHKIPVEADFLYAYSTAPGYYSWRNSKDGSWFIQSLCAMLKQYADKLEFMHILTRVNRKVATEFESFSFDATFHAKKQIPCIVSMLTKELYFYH
Caspase-3 (Homo sapiens) + Caspase-9 (Homo sapiens), sequence (P55211 whole entry, looked up): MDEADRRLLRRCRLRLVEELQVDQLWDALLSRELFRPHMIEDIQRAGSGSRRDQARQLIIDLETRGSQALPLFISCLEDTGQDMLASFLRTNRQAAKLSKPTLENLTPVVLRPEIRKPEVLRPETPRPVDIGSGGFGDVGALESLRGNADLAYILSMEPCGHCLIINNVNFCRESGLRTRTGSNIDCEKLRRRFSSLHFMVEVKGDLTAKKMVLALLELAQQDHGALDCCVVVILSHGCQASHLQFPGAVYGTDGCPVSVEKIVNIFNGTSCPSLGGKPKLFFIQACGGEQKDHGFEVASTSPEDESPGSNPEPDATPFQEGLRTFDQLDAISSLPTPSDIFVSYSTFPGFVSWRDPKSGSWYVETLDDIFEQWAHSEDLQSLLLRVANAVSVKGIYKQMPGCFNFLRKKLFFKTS
As to `Cc1nn(Cc2ccccc2)c(C)c1CCC(=O)O`, the EC50 is > 100 µM (inactive).
To `O=C(Nc1nc2ccsc2c(=O)s1)c1ccco1` belongs > 100 µM (inactive); to `O=C(Nc1nc2ccsc2c(=O)s1)c1cccs1`, > 100 µM (inactive); to `O=C(c1ccco1)N1CCN(C(=O)C2CC(c3ccc(F)cc3)=NO2)CC1` (configuration not stated), > 100 µM (inactive).
Consider `O=C1CC2(CC(c3c(F)cccc3Cl)=NO2)C(=O)N1c1ccccc1` (configuration not stated), for which the EC50 is > 100 µM (inactive).
To `Cc1cc(C)c(O)c(N2CC(C(=O)O)CC2=O)c1` (configuration not stated) belongs > 100 µM (inactive); to `Cc1cc(C)n(C(C)C(C)C(=O)O)n1` (configuration not stated), > 100 µM (inactive); to `Cc1c(NC(=O)C2CC(c3ccc(F)cc3)=NO2)c(=O)n(-c2ccccc2)n1C` (configuration not stated), > 100 µM (inactive).
To `Cc1cc(NC(=O)C2CC(c3ccc(F)cc3)=NO2)n(-c2ccccc2)n1` (configuration not stated) belongs > 100 µM (inactive).
To `O=C(O)C1CC(c2ccc(F)cc2)=NO1` (configuration not stated) belongs > 100 µM (inactive).
Consider `Cc1nn(CC(C)C(=O)O)c(C)c1Br` (configuration not stated), for which the EC50 was > 100 µM (inactive).
To `O=C(Nc1nc2ccsc2c(=O)s1)C1CCC1` belongs > 100 µM (inactive); to `Cc1cc(C)n(C(C)CC(=O)Nc2cccnc2)n1` (configuration not stated), > 100 µM (inactive); to `O=C(Nc1ccc(F)cc1F)C1CC(c2ccc(F)cc2)=NO1` (configuration not stated), > 100 µM (inactive).
The same measure for `CC(Cc1c[nH]c2ccccc12)C(=O)O` (configuration not stated): > 100 µM (inactive).
`Cc1cc(C)n(CC(C)C(=O)Nc2ccc(Cl)c(Cl)c2)n1` (configuration not stated): the EC50 was > 100 µM (inactive).
The same measure for `CCOc1ccccc1NC(=O)CCS(=O)(=O)c1ccc2c(c1)OCCO2`: > 100 µM (inactive).
